The nature of series [1]: Blood concentrations of BL-P 2013 after oral administration. The class given is in vivo. Conditions: mice; oral administration of doses of 25 to 100 mg./kg. of body weight.
Another series concerns Providencia rettgeri. In words: microbe, parasite or virus in culture. The class given is cell-based.
For the next series, the system named is Morganella morganii. Put plainly: microbe, parasite or virus in culture. The series is classed as cell-based.
In the next series the test system is S. aureus. In words: microbe, parasite or virus in culture. The class given is cell-based.
A further series deals with Providencia stuartii. In words: microbe, parasite or virus in culture. The class given is cell-based.
The next series has as its system Clostridium perfringens. In words: microbe, parasite or virus in culture. The series is classed as cell-based.
For the next series, the system named is Enterobacter aerogenes. Put plainly: microbe, parasite or virus in culture. The class given is cell-based. Conditions: Klebsiella aerogenes.
The subject of a further series is Serratia marcescens. In words: microbe, parasite or virus in culture. The series is classed as cell-based.
For the next series, the system named is P. aeruginosa. In words: microbe, parasite or virus in culture. The series is classed as cell-based. Conditions: Pseudomonas aeruginosa.
Another series relates to Enterobacter cloacae. In words: microbe, parasite or virus in culture. The series is classed as cell-based.
The test system of another series is Bacteroides fragilis. Put plainly: microbe, parasite or virus in culture. The class given is cell-based.
Another series concerns Proteus vulgaris. In words: microbe, parasite or virus in culture. The series is classed as cell-based.
For another series, the system named is C. freundii. Put plainly: microbe, parasite or virus in culture. The series is classed as cell-based.
Another series relates to B. fragilis. Conditions: cited from earlier work.
[2] abbreviates: Table 1, C. perfringens, 3 strains (first group), geometric mean, 2 tests, BL-P 2013 as K salt.
Setting [3] is: Table 1, C. perfringens, 3 strains (second group), geometric mean, 2 tests, BL-P 2013 as K salt.
Where [4] appears, read: Table 1, C. perfringens, 8 strains, geometric mean, 2 tests, BL-P 2013 as K salt.
[5] abbreviates: Table 3, C. perfringens, 1 strain.
The mark [6] stands for this setting: Table 3, C. perfringens, 2 strains, geometric mean.
Setting [7] is: Table 3, C. perfringens, 4 strains, geometric mean.
The mark [8] stands for this setting: Table 3, C. perfringens, 6 strains, geometric mean.

Structures are written as SMILES. Converted amounts (≈) assume the structure as drawn. “And” between values parts separate entries of the source, which are not always exact repeats. Equal entries are not always repeated. Where two headings read alike, the source gives them in different places.

These results are taken from EP0134302A1, “Pharmaceutical compositions for treating resistant bacteria including anaerobes” (Bristol-Myers Company, priority 1983, dated 1985).

With `C[C@]1(CCl)[C@H](C(=O)O)N2C(=O)C[C@H]2S1(=O)=O` [BL-P 2013], in series [1], the “blood concentrations of BL-P 2013” value is recorded as “Operative blood concentrations”. Besides, the MIC with Providencia rettgeri is greater than 125 µg/mL; against Morganella morganii, greater than 125 µg/mL; in the series on S. aureus, 73 µg/mL and 96 µg/mL and 85 µg/mL; in the series with S. aureus (Staphylococcus aureus), 100 µg/mL (≈ 374 µM); with Providencia stuartii it was greater than 125 µg/mL; with Clostridium perfringens (setting [2]), greater than 125 µg/mL. The MIC is 89 µg/mL with Clostridium perfringens (setting [3]); greater than 120 µg/mL in the series on Clostridium perfringens (setting [4]); greater than 32 µg/mL in the series on Clostridium perfringens (setting [5]); greater than 32 µg/mL in the series with Clostridium perfringens (setting [6]); 27 µg/mL (≈ 101 µM) with Clostridium perfringens (setting [7]); greater than 32 µg/mL in the series on Clostridium perfringens (setting [8]). Besides, the MIC is greater than 125 µg/mL in the series with Enterobacter aerogenes; greater than 125 µg/mL in the series with Serratia marcescens; greater than 125 µg/mL with P. aeruginosa; greater than 125 µg/mL against Enterobacter cloacae; 21 µg/mL (≈ 78.4 µM) in the series with Bacteroides fragilis (Bacteroides fragilis); greater than 125 µg/mL in the series on Proteus vulgaris. In the series with C. freundii (Citrobacter freundii), this compound displayed an MIC greater than 125 µg/mL.
Consider `C[C@]1(CCl)[C@H](C(=O)OC2OC(=O)c3ccccc32)N2C(=O)C[C@H]2S1(=O)=O` (stereo partly shown), for which the “blood concentrations of BL-P 2013” value in series [1] was “Operative blood concentrations”.
With `CC(C)(O/N=C(\C(=O)N[C@@H]1C(=O)N2C(C(=O)[O-])=C(C[n+]3ccccc3)CS[C@H]12)c1csc(N)n1)C(=O)O` [Ceftazidime, reference compound], the “activity against B. fragilis” value in the series on B. fragilis (Wise et al. 1980) was “low activity”. Besides, the MIC was 8.6 µg/mL and 9.7 µg/mL in the series with S. aureus; 8 µg/mL (≈ 14.6 µM) against S. aureus (Staphylococcus aureus); 0.04 µg/mL with Clostridium perfringens (setting [2]); 0.7 µg/mL in the series on Clostridium perfringens (setting [3]); 3.3 µg/mL in the series with Clostridium perfringens (setting [4]); 2 µg/mL (≈ 3.66 µM) in the series on Clostridium perfringens (setting [5]). The MIC in the series with Clostridium perfringens (setting [6]) stood at 5.7 µg/mL (≈ 10.4 µM); in the series with Clostridium perfringens (setting [7]), 0.11 µg/mL (≈ 0.201 µM); in the series with Clostridium perfringens (setting [8]), 0.1 µg/mL (≈ 0.183 µM); in the series on P. aeruginosa, 8 µg/mL (≈ 14.6 µM); with Proteus vulgaris it was 0.063 µg/mL (≈ 0.115 µM); against C. freundii it was 63 µg/mL (≈ 115 µM). For the same compound, the “susceptibility of Bacteroides fragilis strains” value in the series on Bacteroides fragilis was “resistant”.
With `CC(C)(C)C(=O)OCOC(=O)[C@@H]1N2C(=O)C[C@H]2S(=O)(=O)[C@@]1(C)CCl`, the “blood concentrations of BL-P 2013” value in [1] is reported as “Operative blood concentrations”.
As for `CC1(C)[C@H](C(=O)O)N2C(=O)C[C@H]2S1(=O)=O` [CP-45,899, Penicillanic acid-1,1-dioxide], the “synergism with ampicillin against B. fragilis” value in the series on B. fragilis (Fass, Abstract No. 605, 1980) is reported as “highly synergistic”.
